The nature of data set [1]: Stability of form II: suspension stirred in solvent, solid analysed by XRPD. Type of data set: physicochemical. As to the method:
2.0 g of anagrelide hydrochloride monohydrate form II was suspended in 20 ml solvent. […] At certain time points, a small amount of the suspension was filtered over a P3-glass filter (reduced pressure). The solids were air-dried overnight at RT.
(§1) In the above examples, the XRPD patterns were recorded on a Bruker-AXS D8 vario (Θ/2Θ geometry, reflection mode, Vantec PSD detector) operating at the following settings: […]

For data set [2] the following is noted: cited from earlier work.
Data set [3] in a line: Conversion study in ethanol at specified stirring temperature, XRPD. Format: physicochemical. As to conditions: for Crystal form (XRPD): ethanol, stirring time 2 hours only. As to the method: The suspension was filtered over a P3-glass filter (reduced pressure), washed with solvent and dried.
as §1

A short description of data set [4]: Stability of form I: suspension stirred in solvent, solid analysed by XRPD. Type of data set: physicochemical. As to conditions: RT. On the procedure:
[…] The suspension was filtered over a P3-glass filter (reduced pressure), washed with solvent and dried.
as §1

Data set [5] is described as follows: Instant solubility in buffers, Milli-Q water and 0.1 M HCl (HPLC-UV). Type of data set: physicochemical. The following applies: USP acetate buffer pH 4.5, USP phosphate buffer pH 6.8, Milli-Q water and 0.1 M HCl; room temperature; 0-60 minutes; Figure 5; hydrochloride monohydrate. On the procedure:
The instant solubility of anagrelide hydrochloride monohydrate form II, form I and free base was determined in USP acetate buffer pH 4.5, USP phosphate buffer pH 6.8, Milli-Q water (herein below "MQ") and 0.1 M HCl. About 30 mg of the drug substance was transferred into a clear 50 ml sample jar and a stirring bar was added. Subsequently 30 ml of test medium was added; the vial was closed and placed on a magnetic stirrer. Under constant stirring at room temperature samples of 2 ml were taken at t=0, 10, 20, 30, 40, 50, and 60 minutes. The samples were immediately filtered through a 0.45 µm syringe disk filter (first ml was discarded) and analyzed at once with the HPLC-UV method described in Table 1. The solubility was calculated in mg/ml anagrelide free base against an external standard (AGL.hcl.mhy.120310) dissolved in acetonitrile/milli-Q (ACN/MQ) (50:50). Table 1 HPLC-UV parameters used for instant solubility testing

Data set [6] is described as follows: Polymorphic stability on exposure to air / air-drying. Format: physicochemical.

“Also recorded” adds a separate entry of the source. Structures can show the parent of a compound that is named as a salt.

For the molecule `O=C1CN2Cc3c(ccc(Cl)c3Cl)N=C2N1` [Anagrelide hydrochloride monohydrate], the “converts into anagrelide free base” value in data set [1] (in water) fell in the range of 30 to 180 min. Also, in data set [2], the solubility in water entry was “very slightly soluble”.

Take `Cl.O.O=C1CN2Cc3c(ccc(Cl)c3Cl)N=C2N1` [anagrelide hydrochloride monohydrate]: the “Crystal form (XRPD)” value is “I + II” in data set [3] (stirring temperature 72.5 °C) and “mostly I, some II left” in data set [3] (stirring temperature 75 °C).

`O=C1CN2Cc3c(ccc(Cl)c3Cl)N=C2N1` [form I, anagrelide hydrochloride monohydrate]: the XRPD result in data set [4] (2-propanol, 16 hours) is given as “Form I + II”; in data set [4] (Acetone, 2 days), “Form II”; in data set [4] (Demi-water, 30 min), “Anagrelide base”; in data set [4] (Demi-water, 180 min), “Anagrelide base”; in data set [4] (Ethanol, 30 min), “Form II”; in data set [4] (Ethanol, 16 hours), “Form II”. Also, the XRPD entry in data set [4] (Ethyl acetate, 2 days) is reported as “Form II”.

With `O=C1CN2Cc3c(ccc(Cl)c3Cl)N=C2N1` [form II, anagrelide hydrochloride monohydrate], the XRPD result is “Form II” in data set [1] (2-propanol, 30 min, RT); “Form II” in data set [1] (2-propanol, 60 min, RT); “Form II” in data set [1] (2-propanol, 120 min, RT); “Form II” in data set [1] (2-propanol, overnight, RT); “Form II + anagrelide base” in data set [1] (Demi-water, 30 min, RT); “Form II + anagrelide base” in data set [1] (Demi-water, 60 min, RT). The XRPD entry in data set [1] (Demi-water, 120 min, RT) is “Form II + anagrelide base”; in data set [1] (Demi-water, 180 min, RT), “Anagrelide base”; in data set [1] (Ethanol, 30 min, RT), “Form II”; in data set [1] (Ethanol, 60 min, RT), “Form II”; in data set [1] (Ethanol, 120 min, RT) it was “Form II”; in data set [1] (Ethanol, 3 hours, reflux), “Form I”. In addition, in data set [1] (Ethanol, overnight, RT), the XRPD result is on record as “Form II”. Moreover, the polymorphic stability entry in data set [1] (ambient temperature, ethanol, 2-propanol, acetone, ethyl acetate, compared with form I) is “polymorphically stable at ambient temperature and even more stable than form I”. In addition, the “stability against aqueous hydrolysis” value in data set [1] (stirred in demi-water for up to 180 minutes, compared with form I) is “more stable against aqueous hydrolysis than form I”. Further, in data set [3] (form II / form I, suspension in ethanol), the transition point entry is “around 72.5 °C”. The stable at temperatures entry in data set [3] (suspension in ethanol) was “below 70 °C”. Also, in data set [5], the “instant solubility compared to form I” value is “more soluble; also recorded: higher”. In data set [6] (air-drying at ambient temperature), the “polymorphic change on air-drying” value was “does not cause any polymorphic change”.

Regarding `O=C1CN2Cc3c(ccc(Cl)c3Cl)N=C2N1` [form III, anagrelide hydrochloride monohydrate], the “stability when exposed to air” value in data set [6] (exposed to air) was “converts into form I or a mixture of forms I and II”.

The record behind these values is patent EP2945948B1, “CRYSTALLINE FORM II OF ANAGRELIDE HYDROCHLORIDE MONOHYDRATE” (Synthon BV, priority 2013, dated 2014).
